Results reported in PMC11558998, “Lipophilic bisphosphonates reduced cyst burden and ameliorated hyperactivity of mice chronically infected with Toxoplasma gondii” (mBio, 2024).

What was measured:
[1] = test system: T. gondii Pru strain (type II) tachyzoites; test: In vitro growth inhibition of red fluorescent tachyzoites, Pru strain; format: cell-based, Toxoplasma gondii; conditions: tachyzoite growth
Method: (§1) Experiments with T. gondii tachyzoites were carried out with parasites expressing a td-Tomato RFP ([48], [49]). For drug testing and growth assays, parasites were purified by passing them through a 25-gauge needle, followed by filtration through a 5 µm filter. Human fibroblasts were cultured in 96-well black plates for 48 (hTERT) or 120 (HFF) hours prior to the addition of 4,000 (type I) or 8,000 (type II) fluorescent tachyzoites per well. Fluorescence values were measured for up to 7 days (type I) and 21 days (type II), and both excitation (544 nm) and emission (590 nm) were read from the bottom of the plates in a Molecular Devices plate reader ([36]). The EC50s were calculated using GraphPad Prism software.

[2] = test system: T. gondii Me49 strain (type II) tachyzoites; test: In vitro growth inhibition of red fluorescent tachyzoites, Me49 strain; format: cell-based; conditions: Toxoplasma gondii, tachyzoite growth
Method: as §1

T. gondii ATQ^R R4 = test: In vitro growth inhibition, atovaquone resistant strain R4; format: cell-based; conditions: Toxoplasma gondii, read-out: EC50 ATQ^R R4, atovaquone resistant strain R4
Method: as §1

T. gondii ATQ^R R5 = test: In vitro growth inhibition, atovaquone resistant strain R5; format: cell-based; conditions: Toxoplasma gondii, read-out: EC50 ATQ^R R5
Method: as §1

[3] = test system: in vitro differentiated Me49 bradyzoites (cysts); test: Vacuole size of in vitro differentiated Me49 cysts (DBA/SAG1 IFA); format: cell-based, Toxoplasma gondii; conditions: positive control, concentration not stated in the sentence (Fig. 1C: 3x and 5x EC50)
Method: (§2) Type II Me49 or Pru was differentiated using compound 1 as previously described ([50]). Confluent HFF monolayers on glass coverslips (preincubated for 2 hours with 3 µM compound 1, as described previously) were infected with 5 × 10^3 tachyzoites of the ME49 or Pru (type 2) or EGS (type I/III) strain (no compound 1 for EGS). The cells were allowed to grow and differentiate in a 37°C incubator with ambient CO2 for 3 days (EGS was allowed to spontaneously differentiate for 4 days). […] After 7 days (Me49) or 8 days (EGS) of incubation, the cells were fixed with 3% paraformaldehyde for 10 minutes, permeabilized with 0.25% Triton X-100 for 10 minutes, and then blocked in 3% bovine serum albumin for 1 hour. The coverslips were then incubated in DBA rhodamine (for Me49)([51]) or DBA lectin (a kind gift from Diego Huet for EGS) and anti-SAG1 rat antibody (a kind gift from Vern Carruthers) for 2 hours. Then, the secondary anti-rat 488 was used to visualize the SAG1 antibody. The cells were then mounted onto microscope slides with fluoromount and DAPI (4′,6-diamidino-2-phenylindole). The slides were placed in the fridge for a minimum of 24 hours before imaging on a Delta Vision microscope. The vacuole sizes were calculated using ImageJ software.

[4] = test system: in vitro derived Pru cysts; test: Vacuole size of in vitro derived Pru cysts; format: cell-based, Toxoplasma gondii
Method: as §2

[5] = test system: type I/III EGS strain cysts; test: Vacuole size of spontaneously formed EGS cysts; format: cell-based, Toxoplasma gondii; conditions: EGS spontaneous cysts, 3x EC50, 4 days
Method: as §2

[6] = test system: ex vivo bradyzoites of Me49-RFP from brains of chronically infected mice; test: Ex vivo bradyzoite growth assay, Me49-RFP; format: cell-based, Toxoplasma gondii; conditions: inhibitors present 14 days, 3x EC50
Method: (§3) Brains of chronically infected mice were collected, homogenized with seven strokes in a glass homogenizer, and then enumerated on a Delta Vision microscope [protocol adapted from reference ([45])]. Twenty-five cysts per plate were then placed in a tube for acid/pepsin (170 mM sodium chloride, 60 mM hydrochloric acid, and 0.1 mg/mL pepsin) treatment for 10 minutes in a 37°C water bath. The cysts were then neutralized with 94 mM Na2CO3. The liberated bradyzoites were then equally distributed into a 12-well plate. For the growth assay, the cells were grown in the presence of compounds or DMSO for 12 and 14 days undisturbed. For the viability assays, the cells were treated with compounds or DMSO for 4 hours before being washed with 1× PBS and then grown for 12 and 14 days in media without compounds. After 12 and 14 days, the cells were fixed with 100% ethanol and stained with 2.5× crystal violet. The control DMSO plaque image is duplicated from Fig. 2B to be used as the representative image of plaques in Fig. 2A. Plaques were quantified on a light microscope using the 4× objective and the size of the plaques was measured using Fiji (ImageJ) software.

[7] = test system: ex vivo bradyzoites of Me49-RFP from brains of chronically infected mice; test: Ex vivo bradyzoite viability assay, Me49-RFP; format: cell-based, Toxoplasma gondii; conditions: inhibitors 4 hours then drug-free 14 days, 3x EC50
Method: as §3

[8] = test system: ex vivo bradyzoites of the Pru strain from chronically infected mice; test: Ex vivo bradyzoite growth assay, Pru; format: cell-based, Toxoplasma gondii; conditions: 3x EC50
Method: as §3

[9] = test system: ex vivo bradyzoites of the Pru strain from chronically infected mice; test: Ex vivo bradyzoite viability assay, Pru; format: cell-based, Toxoplasma gondii; conditions: 3x EC50
Method: as §3

[10] = test system: Me49-RFP brain tissue cysts in CBA/j mice; format: in vivo, Toxoplasma gondii; conditions: 500 Me49-RFP i.p., 5 mg/kg/day i.p. for 16 days from 28 dpi, brains 2 weeks after treatment
Method: CBA/j female mice (Jackson Laboratory) were injected i.p. with a 200 µL suspension of 500 tachyzoites of the Me49-RFP strain T. gondii (type II genotype). […] At 4 weeks post-infection, the brains of two mice were collected to check for the presence of cysts and to confirm that the mice were in the chronic stage. At this time, the remaining mice were injected i.p. daily for 16 consecutive days with 200 µL solvent (10% Kolliphor HS-15) or compounds dissolved in 10% HS-15. […] Mice were euthanized humanely 2 weeks after the final injection. The mouse brains were collected in 1 mL sterile PBS, minced with scissors, and homogenized using a glass homogenizer. Four 20 µL samples (80 µL total or 8% of sample) of each brain homogenate were placed on a glass microscope slide. Cysts were enumerated using a Delta Vision fluorescence microscope.

[11] = test system: Me49-RFP brain tissue cysts in Swiss Webster mice; test: Treatment of Swiss Webster mice chronically infected with Me49-RFP; format: in vivo, Toxoplasma gondii; conditions: Swiss Webster mice, 5,000 Me49-RFP i.p.
[12] = test system: Human Foreskin Fibroblasts (HFF); test: Cytotoxicity on HFF cells (Alamar Blue); format: cell-based
Method: (§4) The cytotoxicity was tested using an Alamar Blue assay as described by Recher et al. ([49]).

C2C12 myoblasts = test: Cytotoxicity on C2C12 myoblasts (Alamar Blue); format: cell-based
Method: as §4

[13] = test system: toxoplasmosis relapse in patients; conditions: after 6 years of therapy; cited from earlier work
[14] = test system: Pru-GFP brain tissue cysts in Balb/c mice; test: Treatment of Balb/c mice chronically infected with Pru-GFP; conditions: Balb/c mice, 1,500 Pru-GFP i.p., 5 mg/kg/day i.p. for 16 days from 28 dpi
Method: BALB/c male mice (Jackson Laboratory) were injected i.p. with a 200 µL suspension of 1,500 tachyzoites of the Pru-GFP strain T. gondii (type II genotype) (a gift from Laura Knoll). […] At 4 weeks post-infection, the brains of two mice were collected to check for the presence of cysts and to confirm that the mice were in the chronic stage. At this time, the remaining mice were injected i.p. daily for 16 consecutive days with 200 µL solvent (10% Kolliphor HS-15) or compounds dissolved in 10% HS-15. […] Mice were euthanized humanely 2 weeks after the final injection. The mouse brains were collected in 1 mL sterile PBS, minced with scissors, and homogenized using a glass homogenizer. Four 20 µL samples (80 µL total or 8% of sample) of each brain homogenate were placed on a glass microscope slide. Cysts were enumerated using a Delta Vision fluorescence microscope.

[15] = test system: hyperactivity of Balb/c mice chronically infected with Pru-GFP; test: CageDot continuous monitoring of mouse activity during chronic infection; conditions: 5 mg/kg/day i.p. 16 days, 15 dpt and 2 wpt
Method: At this time, the remaining mice were injected i.p. daily for 16 consecutive days with 200 µL solvent (10% Kolliphor HS-15) or compounds dissolved in 10% HS-15. […] Mice were euthanized humanely 2 weeks after the final injection.
Mice were monitored during the infection using the CageDot ([30], [31]), which detects vibrations. […] Data are collected at a 100 Hz sampling rate (each second, 100 data points were collected).

T. gondii tachyzoites = test: EC50 against tachyzoites indicated in Fig. 1E, used to set 3x and 5x concentrations; conditions: Toxoplasma gondii, read-out: indicated EC50 (shown in parentheses, Fig. 1E)
[16] = test system: T. gondii RH strain (type I) tachyzoites; test: In vitro growth inhibition of red fluorescent tachyzoites, RH strain; format: cell-based; conditions: Toxoplasma gondii, tachyzoite growth
Method: as §1

O=C1C(O)=C([C@H]2CC[C@H](c3ccc(Cl)cc3)CC2)C(=O)c2ccccc21 [Atovaquone]
EC50 [1]: 0.00417 ± 0.00234 µM
EC50 [2]: 0.00153 ± 0.000229 µM
EC50 (T. gondii ATQ^R R4): 1.9 µM
EC50 (T. gondii ATQ^R R5): 1.03 ± 0.29 µM
vacuole size [3]: reduced vacuole size
vacuole size [4]: decreased the vacuole size
size of the vacuoles (cysts) [5]: reduced the size of the vacuoles
number of plaques, ex vivo growth [6]: effective against bradyzoite growth
number of plaques, ex vivo viability [7]: only a minimal impact on viability
number of plaques, ex vivo growth [8]: significant reduction in the number of plaques
number of plaques, ex vivo viability [9]: significant reduction in the number of plaques
reduction in the number of cysts compared to the control [10]: 56.6%
reduction of cyst burden ([11]; ATQ at 5 mg/kg daily for 16 days): 65.5%
cyst size ([11]; daily treatment 16 days): reduced the size of the cysts
% Inhibition on HFF ([12]; 4X EC50): 4.69 ± 2.56%
% Inhibition on HFF ([12]; 10X EC50): 7.23 ± 2.29%
% Inhibition on C2C12 (C2C12 myoblasts; 4X EC50): 2.61 ± 4.48%
% Inhibition on C2C12 (C2C12 myoblasts; 10X EC50): 6.84 ± 5.34%
patients experiencing relapse [13]: up to 75%
reduction of cyst burden [14]: 71.9%
activity of infected mice (nightly average energy, CageDot) [15]: decreased the activity of the infected mice to similar levels of the control uninfected mice
EC50 (T. gondii tachyzoites): 0.01 µM

CCc1nc(N)nc(N)c1-c1ccc(Cl)cc1 [Pyrimethamine]
EC50 [16]: 0.383 ± 0.078 µM
EC50 ([1]; Toxoplasma gondii): 0.0432 ± 0.00258 µM
EC50 [2]: 0.00167 ± 0.000268 µM
EC50 (T. gondii ATQ^R R4): 0.0221 ± 0.00352 µM
EC50 (T. gondii ATQ^R R5): 0.00523 ± 0.000221 µM
% Inhibition on HFF ([12]; 4X EC50): 0.38 ± 2.61%
% Inhibition on HFF ([12]; 10X EC50): 6.18 ± 0.98%
% Inhibition on C2C12 (C2C12 myoblasts; 4X EC50): 2.39 ± 3.50%
% Inhibition on C2C12 (C2C12 myoblasts; 10X EC50): 6.57 ± 1.31%
